Where “and” joins values, the source holds several entries; their conditions need not be identical. Equal values may be shown once. Inconclusive results and toxic doses are left out.
Tested on: CD2F1 mice, L1210 leukemia ip, survival T/C
Assay: NCI In Vivo Anticancer Drug Screen. Data for tumor model L1210 Leukemia (intraperitoneal) in CD2F1 (CDF1) mice
Settings: higher = longer survival
In short: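 Vehicle-treated tumor-bearing mice served as controls (C) for compound-treated mice (T). Reported figure is T divided by C.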

[1] = endpoint: mean survival time, dose: 100.0 mg/kg/injection, schedule: Q01DX009 (ip), vehicle: saline with Tween-80
[2] = endpoint: mean survival time, dose: 200.0 mg/kg/injection, schedule: Q01DX009 (ip), vehicle: saline with Tween-80
[3] = endpoint: mean survival time, dose: 400.0 mg/kg/injection, schedule: Q01DX009 (ip), vehicle: saline with Tween-80
[4] = endpoint: mean survival time, dose: 100.0 mg/kg/injection, schedule: Q04DX003 (ip), vehicle: saline with Tween-80
[5] = endpoint: mean survival time, dose: 200.0 mg/kg/injection, schedule: Q04DX003 (ip), vehicle: saline with Tween-80
[6] = endpoint: mean survival time, dose: 400.0 mg/kg/injection, schedule: Q04DX003 (ip), vehicle: saline with Tween-80
[7] = endpoint: mean survival time, dose: 50.0 mg/kg/injection, schedule: Q01DX009 (ip), vehicle: saline with Tween-80

For CN(N=O)C(=O)NCC1CCC(CNC(=O)N(C)N=O)CC1 (stereo not drawn), the T/C (endpoint: mean survival time, dose: 100.0 mg/kg/injection, schedule: Q01DX001 (ip), vehicle: carboxymethylcellulose (CMC)) was 96 % of control, the T/C (endpoint: mean survival time, dose: 200.0 mg/kg/injection, schedule: Q01DX001 (ip), vehicle: carboxymethylcellulose (CMC)) was 88 % of control and 98 % of control and the T/C (endpoint: mean survival time, dose: 300.0 mg/kg/injection, schedule: Q01DX001 (ip), vehicle: carboxymethylcellulose (CMC)) was 98 % of control and 93 % of control. For the same compound, the T/C (endpoint: mean survival time, dose: 400.0 mg/kg/injection, schedule: Q01DX001 (ip), vehicle: carboxymethylcellulose (CMC)) was 101 % of control and 108 % of control, the T/C (endpoint: mean survival time, dose: 500.0 mg/kg/injection, schedule: Q01DX001 (ip), vehicle: carboxymethylcellulose (CMC)) was 106 % of control and 107 % of control and the T/C (endpoint: mean survival time, dose: 600.0 mg/kg/injection, schedule: Q01DX001 (ip), vehicle: carboxymethylcellulose (CMC)) was 104 % of control. The T/C (endpoint: mean survival time, dose: 800.0 mg/kg/injection, schedule: Q01DX001 (ip), vehicle: carboxymethylcellulose (CMC)) was 111 % of control and the T/C (endpoint: mean survival time, dose: 1000.0 mg/kg/injection, schedule: Q01DX001 (ip), vehicle: carboxymethylcellulose (CMC)) was 112 % of control.

In the case of O=C1CCC(=O)N1N1C(=O)CCC1=O, the T/C (endpoint: mean survival time, dose: 100.0 mg/kg/injection, schedule: Q01DX001 (ip), vehicle: Klucel (hydroxypropylcellulose) (HPC)) is reported as 101 % of control, the T/C (endpoint: mean survival time, dose: 200.0 mg/kg/injection, schedule: Q01DX001 (ip), vehicle: Klucel (hydroxypropylcellulose) (HPC)) is reported as 96 % of control and the T/C (endpoint: mean survival time, dose: 400.0 mg/kg/injection, schedule: Q01DX001 (ip), vehicle: Klucel (hydroxypropylcellulose) (HPC)) is reported as 96 % of control.

O=C(O)C1=CCC=CC1 was tested, and the T/C [1] was 104 % of control, the T/C [2] was 97 % of control and the T/C [3] was 106 % of control.

For CN1c2c(nc(N)[nH]c2=O)NCC1CCNc1ccc(C(=O)NC(CCC(=O)O)C(=O)O)cc1 (stereo not drawn), the T/C (endpoint: mean survival time, dose: 25.0 mg/kg/injection, schedule: Q01DX009 (ip), vehicle: Klucel (hydroxypropylcellulose) (HPC)) was 118 % of control, the T/C (endpoint: mean survival time, dose: 50.0 mg/kg/injection, schedule: Q01DX009 (ip), vehicle: Klucel (hydroxypropylcellulose) (HPC)) was 123 % of control and the T/C (endpoint: mean survival time, dose: 200.0 mg/kg/injection, schedule: Q01DX009 (ip), vehicle: sodium bicarbonate) was 119 % of control. For the same compound, the T/C (endpoint: mean survival time, dose: 1250.0 mg/kg/injection, schedule: Q01DX009 (ip), vehicle: sodium bicarbonate) was 155 % of control.

In the case of c1ccc2c(c1)Cc1nc3ccccc3nc1-2, the T/C [1] is reported as 94 % of control, the T/C [4] is reported as 105 % of control and the T/C [2] is reported as 94 % of control. The T/C [5] was 103 % of control, the T/C [3] was 97 % of control and the T/C [6] was 97 % of control.

For COCC1OC(OC(=O)c2ccccc2)C(OC(=O)c2ccccc2)C(OC(=O)c2ccccc2)C1OC (stereo not drawn), the T/C [7] was 101 % of control and the T/C [2] was 93 % of control.

[N-]=[N+]=NC1CC(n2ccc(=O)[nH]c2=O)OC1CO (stereo not drawn) was tested, and the T/C (endpoint: median survival time, dose: 12.5 mg/kg/injection, schedule: Q01DX005 (ip), vehicle: saline) was 101 % of control, the T/C (endpoint: median survival time, dose: 25.0 mg/kg/injection, schedule: Q01DX005 (ip), vehicle: saline) was 102 % of control and the T/C (endpoint: median survival time, dose: 50.0 mg/kg/injection, schedule: Q01DX005 (ip), vehicle: saline) was 100 % of control. For the same compound, the T/C (endpoint: median survival time, dose: 100.0 mg/kg/injection, schedule: Q01DX005 (ip), vehicle: saline) was 94 % of control and the T/C (endpoint: median survival time, dose: 200.0 mg/kg/injection, schedule: Q01DX005 (ip), vehicle: saline) was 100 % of control.

For [Cl][PtH].c1ccc([PH+](c2ccccc2)c2ccccc2)cc1.c1ccc([PH+](c2ccccc2)c2ccccc2)cc1, the T/C (endpoint: mean survival time, dose: 100.0 mg/kg/injection, schedule: Q01DX001 (ip), vehicle: saline with Tween-80) was 92 % of control, the T/C (endpoint: mean survival time, dose: 200.0 mg/kg/injection, schedule: Q01DX001 (ip), vehicle: saline with Tween-80) was 92 % of control and the T/C (endpoint: mean survival time, dose: 400.0 mg/kg/injection, schedule: Q01DX001 (ip), vehicle: saline with Tween-80) was 95 % of control.

CCC(CC(=O)O)c1ccccc1 (stereo not drawn) was tested, and the T/C (endpoint: mean survival time, dose: 50.0 mg/kg/injection, schedule: Q04DX003 (ip), vehicle: saline) was 96 % of control, the T/C (endpoint: mean survival time, dose: 100.0 mg/kg/injection, schedule: Q04DX003 (ip), vehicle: saline) was 100 % of control and the T/C (endpoint: mean survival time, dose: 200.0 mg/kg/injection, schedule: Q04DX003 (ip), vehicle: saline) was 102 % of control.

COc1ccc(-c2cc(C(=O)O)c3cccc(C)c3n2)cc1 was tested, and the T/C [7] was 95 % of control, the T/C [1] was 95 % of control and the T/C [4] was 98 % of control. For the same compound, the T/C [2] was 95 % of control and the T/C [5] was 95 % of control.

In the case of O=C(O)/C=C/C(=O)Nc1cccc2cccnc12, the T/C [1] is reported as 93 % of control, the T/C [4] is reported as 98 % of control and the T/C [2] is reported as 102 % of control. For the same compound, the T/C [5] was 93 % of control, the T/C [3] was 100 % of control and the T/C [6] was 98 % of control.

For N#CCC(O)(/C=C/c1ccccc1)c1ccccc1 (stereo not drawn), the T/C [1] was 95 % of control, the T/C [4] was 97 % of control and the T/C [2] was 91 % of control. The T/C [3] was 89 % of control and the T/C [6] was 88 % of control.
